Tested on: senescent fibroblasts (after 37 cell passages)
Assay: microscopic observation of cell number and shape
Type: cell-based, human
Conditions: 5 μM, 4 weeks, FIG. 3
Protocol: In addition, after senescent fibroblasts (after 37 cell passages) were cultured in the same culture media and same conditions as described above in the presence of 0.05 (v/v) % of DMSO and Y-27632 (5 μM), shapes of the cells were observed using a microscope. FIG. 3 is a microscopic image illustrating cell shapes of senescent fibroblasts (after 37 cell passages) cultured in the presence of Y-27632 for 4 weeks.

**Q.** Which cell shape does the source give for `C[C@@H](N)[C@H]1CC[C@H](C(=O)Nc2ccncc2)CC1` [Y-27632, (1R,4R)-4-((R)-1-aminoethyl)-N-(pyridin-4-yl)cyclohexanecarboxamide] here?
**A.** The cell shape was “spindle shape generally found in young cells”.

**Q.** And the numbers of cells (vs DMSO)?
**A.** Its numbers of cells is “greater than that of the control group”.

From patent US9943525B2, “Composition for reducing cell senescence comprising Rho-kinase inhibitor and use thereof” (Samsung Electronics Co., Ltd., priority 2014, dated 2018)
